ChEMBL document CHEMBL1795288, “Lignans and neolignans from Sinocalamus affinis and their absolute configurations” (2011)
Calls of active or inactive are those of the source. No cut-off for these calls is given here.

Legend:
[1] = system: Human immunodeficiency virus 1; test: Antiviral activity against HIV1 NL4-3 infected in human 293T cells assessed as inhibition of viral replication at 10 uM after 48 hrs by luciferase reporter gene assay; assay type: functional, organism-based
[2] = system: Peritoneal macrophage cell; test: Inhibition of LPS-induced nitric oxide production in C57BL/6J mouse peritoneal macrophages at 10 uM after 24 hrs by Griess reaction; assay type: functional
Liver microsomes = test: Antioxidant activity in rat Liver microsome assessed as inhibition of Fe2+-cystine-induced lipid peroxidation at 10 uM; assay type: functional
WB-F344 = test: Hepatoprotective activity against DL-galactosamine-induced cell damage in rat WB-F344 cells at 10 uM after 24 hrs by MTT assay; assay type: functional, cell-based
A549 = test: Cytotoxicity against human A549 cells at 10 uM after 96 hrs by MTT assay; assay type: functional, cell-based
BGC-823 = test: Cytotoxicity against human BGC823 cells at 10 uM after 96 hrs by MTT assay; assay type: functional, cell-based
MCF7 = test: Cytotoxicity against human MCF7 cells at 10 uM after 96 hrs by MTT assay; assay type: functional, cell-based
Bel-7402 = test: Cytotoxicity against human Bel7402 cells at 10 uM after 96 hrs by MTT assay; assay type: functional, cell-based
KETR3 = test: Cytotoxicity against human Ketr3 cells at 10 uM after 96 hrs by MTT assay; assay type: functional, cell-based
HCT-8 = test: Cytotoxicity against human HCT8 cells at 10 uM after 96 hrs by MTT assay; assay type: functional, cell-based
PC-12 = test: Neuroprotective activity against serum deprivation-induced toxicity in rat PC12 cells assessed as increase in cell viability at 10 uM after 48 hrs by MTT assay; assay type: functional

## COc1cc([C@@H]2O[C@@H](c3cc(OC)c(OC)c(OC)c3)[C@H](CO)[C@H]2CO)cc(OC)c1O
[1]
  inhibition: inactive
[2]
  inhibition at 10 µM: < 30%
Liver microsomes
  inhibition: inactive
WB-F344
  Activity: inactive
A549
  Activity: inactive
BGC-823
  Activity: inactive
MCF7
  Activity: inactive
Bel-7402
  Activity: inactive
KETR3
  Activity: inactive
HCT-8
  Activity: inactive

## COc1cc(C(=O)[C@@H]2CO[C@H](c3cc(OC)c(O)c(OC)c3)[C@H]2CO)cc(OC)c1O
[1]
  inhibition: inactive
[2]
  inhibition at 10 µM: < 30%
Liver microsomes
  inhibition: inactive
WB-F344
  Activity: inactive
A549
  Activity: inactive
BGC-823
  Activity: inactive
MCF7
  Activity: inactive
Bel-7402
  Activity: inactive
KETR3
  Activity: inactive
HCT-8
  Activity: inactive

## COc1cc([C@@H]2Oc3c(OC)cc(/C=C/CO)cc3[C@H]2CO)cc(OC)c1OC
[1]
  inhibition: inactive
[2]
  inhibition at 10 µM: < 30%
Liver microsomes
  inhibition: inactive
WB-F344
  Activity: inactive
A549
  Activity: inactive
BGC-823
  Activity: inactive
MCF7
  Activity: inactive
Bel-7402
  Activity: inactive
KETR3
  Activity: inactive
HCT-8
  Activity: inactive

## COc1cc([C@@H](O)[C@H](CO)Oc2c(OC)cc(-c3cc(=O)c4c(O)cc(O)cc4o3)cc2OC)ccc1O
[1]
  inhibition: inactive
[2]
  inhibition at 10 µM: < 30%
Liver microsomes
  inhibition: inactive
WB-F344
  Activity: inactive
A549
  Activity: inactive
BGC-823
  Activity: inactive
MCF7
  Activity: inactive
Bel-7402
  Activity: inactive
KETR3
  Activity: inactive
HCT-8
  Activity: inactive

## COc1cc([C@H](O)[C@H](CO)Oc2c(OC)cc(-c3cc(=O)c4c(O)cc(O)cc4o3)cc2OC)ccc1O [SALCOLIN B]
[1]
  inhibition: inactive
PC-12
  Activity: 97.6%
[2]
  inhibition at 10 µM: 71.7%
Liver microsomes
  inhibition: inactive
WB-F344
  Activity: inactive
A549
  Activity: inactive
BGC-823
  Activity: inactive
MCF7
  Activity: inactive
Bel-7402
  Activity: inactive
KETR3
  Activity: inactive
HCT-8
  Activity: inactive

## COc1cc2c(c(OC)c1O)[C@H]1c3c(cc(OC)c(O)c3OC)OC[C@@H](C2)[C@H]1CO
[1]
  inhibition: inactive
[2]
  inhibition at 10 µM: < 30%
Liver microsomes
  inhibition: inactive
WB-F344
  Activity: inactive
A549
  Activity: inactive
BGC-823
  Activity: inactive
MCF7
  Activity: inactive
Bel-7402
  Activity: inactive
KETR3
  Activity: inactive
HCT-8
  Activity: inactive

## COc1cc([C@@H](O)[C@H](CO)Oc2c(OC)cc([C@@H]3OC[C@@H]4[C@H]3CO[C@H]4c3cc(OC)c(O[C@@H](CO)[C@H](O)c4ccc(O)c(OC)c4)c(OC)c3)cc2OC)ccc1O
[1]
  inhibition: inactive
[2]
  inhibition at 10 µM: < 30%
Liver microsomes
  inhibition: inactive
WB-F344
  Activity: inactive
A549
  Activity: inactive
BGC-823
  Activity: inactive
MCF7
  Activity: inactive
Bel-7402
  Activity: inactive
KETR3
  Activity: inactive
HCT-8
  Activity: inactive

## C[C@@H]1C[C@H]2[C@@H]3CCC4=CC(=O)C=C[C@]4(C)[C@@]3(F)[C@@H](O)C[C@]2(C)[C@@]1(O)C(=O)CO [DEXAMETHASONE]
[2]
  inhibition at 10 µM: 61.6%

## COc1cc(-c2cc(=O)c3c(O)cc(O)cc3o2)cc(OC)c1O[C@@H](CO)[C@H](O)c1ccc(O)cc1
[1]
  inhibition: inactive
PC-12
  Activity: 80.7%
[2]
  inhibition at 10 µM: < 30%
Liver microsomes
  inhibition: inactive
WB-F344
  Activity: inactive
A549
  Activity: inactive
BGC-823
  Activity: inactive
MCF7
  Activity: inactive
Bel-7402
  Activity: inactive
KETR3
  Activity: inactive
HCT-8
  Activity: inactive

## COc1cc([C@H](O)[C@@H](CO)Oc2c(OC)cc([C@@H]3Oc4c(OC)cc(C=O)cc4[C@H]3CO)cc2OC)ccc1O
[1]
  inhibition: inactive
[2]
  inhibition at 10 µM: < 30%
Liver microsomes
  inhibition: inactive
WB-F344
  Activity: inactive
A549
  Activity: inactive
BGC-823
  Activity: inactive
MCF7
  Activity: inactive
Bel-7402
  Activity: inactive
KETR3
  Activity: inactive
HCT-8
  Activity: inactive

## COc1cc(-c2cc(=O)c3c(O)cc(O)cc3o2)cc(OC)c1O[C@@H](CO)[C@@H](O)c1ccc(O)cc1
[1]
  inhibition: inactive
PC-12
  Activity: 107.2%
[2]
  inhibition at 10 µM: 84.2%
Liver microsomes
  inhibition: inactive
WB-F344
  Activity: inactive
A549
  Activity: inactive
BGC-823
  Activity: inactive
MCF7
  Activity: inactive
Bel-7402
  Activity: inactive
KETR3
  Activity: inactive
HCT-8
  Activity: inactive

## COc1cc([C@@H]2OC[C@@H]3[C@H]2CO[C@H]3c2cc(OC)c(OC)c(OC)c2)cc(OC)c1O
[1]
  inhibition: inactive
[2]
  inhibition at 10 µM: < 30%
Liver microsomes
  inhibition: inactive
WB-F344
  Activity: inactive
A549
  Activity: inactive
BGC-823
  Activity: inactive
MCF7
  Activity: inactive
Bel-7402
  Activity: inactive
KETR3
  Activity: inactive
HCT-8
  Activity: inactive

## COc1cc([C@H](O)[C@H](CO)Oc2c(OC)cc(C(=O)O)cc2OC)ccc1O
[1]
  inhibition: inactive
[2]
  inhibition at 10 µM: < 30%
Liver microsomes
  inhibition: inactive
WB-F344
  Activity: inactive
A549
  Activity: inactive
BGC-823
  Activity: inactive
MCF7
  Activity: inactive
Bel-7402
  Activity: inactive
KETR3
  Activity: inactive
HCT-8
  Activity: inactive

## COc1cc([C@H](O)[C@H](CO)Oc2c(OC)cc([C@@H]3OC[C@@H]4[C@H]3CO[C@H]4c3cc(OC)c(O[C@@H](CO)[C@@H](O)c4ccc(O)c(OC)c4)c(OC)c3)cc2OC)ccc1O
[1]
  inhibition: inactive
[2]
  inhibition at 10 µM: < 30%
Liver microsomes
  inhibition: inactive
WB-F344
  Activity: inactive
A549
  Activity: inactive
BGC-823
  Activity: inactive
MCF7
  Activity: inactive
Bel-7402
  Activity: inactive
KETR3
  Activity: inactive
HCT-8
  Activity: inactive

## COc1cc([C@H](O)[C@H](CO)Oc2c(OC)cc(O)cc2OC)ccc1O
[1]
  inhibition: inactive
[2]
  inhibition at 10 µM: < 30%
Liver microsomes
  inhibition: inactive
WB-F344
  Activity: inactive
A549
  Activity: inactive
BGC-823
  Activity: inactive
MCF7
  Activity: inactive
Bel-7402
  Activity: inactive
KETR3
  Activity: inactive
HCT-8
  Activity: inactive
